Laboratory results as given in patent publication US20240279202A1 (NURIX THERAPEUTICS, INC., priority 2021, published 2024).
Where a name gives a salt, the structure may show the parent alone.

Target: T1, ITK (Mus musculus, UniProt Q03526)
T1 construct: mice were sacrificed and splenocytes were isolated and used to prepare protein lysates; from tissue; host or cells: mouse splenocytes (spleen) after oral dosing
T1 sequence (Q03526 1-625): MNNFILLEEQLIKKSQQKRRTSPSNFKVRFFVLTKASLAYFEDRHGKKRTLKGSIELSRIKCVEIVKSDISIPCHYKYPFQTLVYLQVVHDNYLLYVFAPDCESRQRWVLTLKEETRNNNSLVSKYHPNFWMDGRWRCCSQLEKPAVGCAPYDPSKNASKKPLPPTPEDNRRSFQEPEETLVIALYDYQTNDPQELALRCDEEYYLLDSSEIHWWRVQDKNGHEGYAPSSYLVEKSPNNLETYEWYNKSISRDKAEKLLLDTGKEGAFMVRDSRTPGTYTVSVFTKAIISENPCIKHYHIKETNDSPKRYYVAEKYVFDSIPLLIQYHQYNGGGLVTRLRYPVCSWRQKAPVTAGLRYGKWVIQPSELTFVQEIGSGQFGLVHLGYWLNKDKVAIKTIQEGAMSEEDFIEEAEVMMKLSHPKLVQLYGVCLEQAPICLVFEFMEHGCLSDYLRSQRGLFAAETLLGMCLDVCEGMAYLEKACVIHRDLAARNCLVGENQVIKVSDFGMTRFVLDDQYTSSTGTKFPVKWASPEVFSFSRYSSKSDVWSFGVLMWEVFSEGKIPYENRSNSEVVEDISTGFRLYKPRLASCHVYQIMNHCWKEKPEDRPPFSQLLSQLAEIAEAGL
Assay: Mouse PD assay for ITK degradation (Western blot, splenocytes after oral administration)
Assay type: in vivo
Settings: for ITK degradation in vivo at 6 hours (FIG. 3A, FIG. 4A) / ITK degradation in vivo at 24 hours (FIG. 3A, FIG. 4A): mice, oral, splenocytes, Western blot; for ITK (%) 90 mpk PO, 6 h: percent ITK remaining in mouse splenocytes relative to vehicle
Procedure: Compounds 1, 3, 7, and 42 were formulated and administered at 90 mg/kg to mice by oral gavage (PO). Blood was collected at defined time points (after 1, 2, and 6 hours) after compounds administration to determine PK parameters. Concentration increased through 6 hours. Six hours later mice were sacrificed and splenocytes were isolated and used to prepare protein lysates. Total protein levels were determined in the lysates using the BCA assay according to standard methods. Equal amounts of protein were then analyzed by Western blot to determine the level of ITK expression in each sample. ITK band intensities were measured using Alpha View software and the percent of ITK remaining in each test animal was determined relative to the mean of ITK levels in vehicle control samples.
After 6 hours, splenocytes cells were harvested. ITK was evaluated by Western blotting.
Compounds 43, 4, 5, 10, 11, 12, 44, 14, 3, and 13 were administered to mice orally. After 6 hours, splenocytes cells were harvested. ITK was evaluated by Western blotting. Media was removed and cell pellets were lysed in 100 uL lysis buffer (RIPA buffer (Fisher, PI89901), cOmplete Mini EDTA-free protease inhibitor (Sigma 11836170001), Protease Inhibitor Cocktail (Sigma, P2714), Phosphatase Inhibitor Cocktail 2 and 3 (Sigma, P5726 and P0044), Benzonase (Sigma, E1014)). Cells were lysed overnight at −20° C. Following thaw, cells were centrifuged for 10 min at 13000 rpm, then transferred to new tube. Protein levels were determined by BCA Assay performed according to manufacturer's protocol (EMID Millipore, cat. no. 71285-3). Samples were combined with (4×) LDS Sample Buffer and (10×) Reducing Agent and H2O to equally load 20 ug protein per lane of a 26-well NuPAGE 4-12% Bis-Tris protein gel (1.0 mm, Thermo cat. no. NP0326). Samples were separated by running gels at constant 150 V in NuPAGE MES SDS Running Buffer. Following electrophoresis, proteins were transferred to nitrocellulose membranes using an iBlot Gel Transfer Device and iBlot Gel Transfer Stacks (Thermo cat. no. IB21001 and IB301001) and transfer method P3 (20V for 7 min). Membranes were blocked for 1 hr in 5% milk solution (TBS (0.2% Tween-20)). Following blocking, membranes were incubated with primary antibody (1:1000 CST ITK (2F12) #2380) overnight at 4° C. with gentle shaking. Blots were washed 2× in TBS (0.2% Tween-20), 30 min per wash. Following washes, blots were incubated in secondary HRP-conjugated antibody (Promega anti-Mouse IgG (H+L) HRP cat. no. W4021), 1:5000 in 5% milk solution (TBS (0.2% Tween-20)), for 1 hr at room temperature with gentle shaking. Blots were washed 2× in TBS (0.2% Tween-20), 30 min per wash. Blots were incubated with 1:1 mix of ECL reagents 1 & 2 (Amersham ECL Western Blotting Detection Reagent, cat. no. RPN2106) for 2 min at room temperature. Bands were visualized using a Protein Simple imager. Blots were then re-probed with a combination of anti-actin antibody (Sigma Monoclonal Mouse Anti-3-Actin (clone AC-15), cat. no. A5441) and secondary H1RP-conjugated antibody (Promega anti-Mouse IgG (H+L) HRP, cat. no. W4021) and similar steps were taken for incubation, wash, detection and visualization steps as above. The data was analyzed using Alpha View software. The densitometric reading for each sample band was normalized to that of the corresponding actin band per lane. Approximate % ITK remaining per sample was calculated as follows: […]
Once % ITK remaining has been calculated for each sample, groups are averaged together to show an means % ITK normalized to actin and relative to control.
Compounds 16, 17, and 18 were administered to mice orally. After 6 hours or 24 hours, splenocytes cells were harvested. ITK was evaluated by Western blotting. Plasma concentrations were determined by LC/MS/MS. Plasma samples were protein precipitated by addition of 100 μl of acetonitrile containing 50 ng/ml of internal standard. The resulting mixture was vortexed and centrifuged at 4000 RPM for 5 minutes. […]

Row | ITK degradation in vivo at 6 hours (FIG. 3A, FIG. 4A) | ITK (%) 90 mpk PO, 6 h [%] | ITK degradation in vivo at 24 hours (FIG. 3A, FIG. 4A) | Compound
1 | degraded ITK in vivo | 11 | – | C[C@@H](C(=O)N(C)c1ccc2cc(-c3n[nH]c4c3CCC(C)(C)C4)[nH]c2c1)N1CCN(CC2CCN(c3ccc(C4CCC(=O)NC4=O)cn3)CC2)CC1 (stereo partly drawn) [Compound 10, (2S)—N-(2-(6,6-dimethyl-4,5,6,7-tetrahydro-1H-indazol-3-yl)-1H-indol-6-yl)-2(4-((1-(5-(2,6-dioxopiperidin-3-yl)pyridin-2-yl)piperidin-4-yl)methyl)piperazin-1-yl)-N-methylpropanamide]
2 | degraded ITK in vivo | 47 | – | Cn1c(=O)n(C2CCC(=O)NC2=O)c2ccc(N3CCC(CN4CCC5(CC4)CCN(c4ccc6cc(-c7n[nH]c8c7CCC(C)(C)C8)[nH]c6c4)C5=O)CC3)cc21 (centres unmarked) [Compound 14, 3-(5-(4-((2-(2-(6,6-dimethyl-4,5,6,7-tetrahydro-1H-indazol-3-yl)-1H-indol-6-yl)-1-oxo-2,8-diazaspiro[4.5]decan-8-yl)methyl)piperidin-1-yl)-3-methyl-2-oxo-2,3-dihydro-1H-benzo[d]imidazol-1-yl)piperidine-2,6-dione]
3 | – | 8 | – | C[C@@]12Cc3[nH]nc(-c4cc5ccc(N6CCC7(CCN(CC8CCN(c9ccc(C%10CCC(=O)NC%10=O)cn9)CC8)CC7)C6=O)cc5[nH]4)c3C[C@@H]1C2(F)F (stereo partly drawn) [Compound 19, 3-(6-(4-((2-(2-((4aS,5aR)-5,5-difluoro-5a-methyl-1,4,4a,5,5a,6-hexahydrocyclopropa[f]indazol-3-yl)-1H-indol-6-yl)-1-oxo-2,8-diazaspiro[4.5]decan-8-yl)methyl)piperidin-1-yl)pyridin-3-yl)piperidine-2,6-dione]

Continued, molecule first:

Row | Compound | ITK degradation in vivo at 6 hours (FIG. 3A, FIG. 4A) | ITK (%) 90 mpk PO, 6 h [%] | ITK degradation in vivo at 24 hours (FIG. 3A, FIG. 4A)
4 | C[C@@H](C(=O)N(C)c1ccc2cc(-c3n[nH]c4c3CCC(C)(C)C4)[nH]c2c1)N1CCN(CC2CCN(c3ccc(N4CCC(=O)NC4=O)cn3)CC2)CC1 [Compound 11, (S)—N-(2-(6,6-dimethyl-4,5,6,7-tetrahydro-1H-indazol-3-yl)-1H-indol-6-yl)-2-(4-((1-(5-(2,4-dioxotetrahydropyrimidin-1(2H)-yl)pyridin-2-yl)piperidin-4-yl)methyl)piperazin-1-yl)-N-methylpropanamide] | degraded ITK in vivo | 116 | –
5 | C[C@@H](C(=O)N(C)c1ccc2cc(-c3n[nH]c4c3CCC(C)(C)C4)[nH]c2c1)N1CCN(C[C@H]2CCN(c3ccc4c(c3)CN(C3CCC(=O)NC3=O)C4=O)C2)CC1 (stereo partly drawn) [Compound 12, (2S)—N-(2-(6,6-dimethyl-4,5,6,7-tetrahydro-1H-indazol-3-yl)-1H-indol-6-yl)-2-(4-(((3R)-1-(2-(2,6-dioxopiperidin-3-yl)-1-oxoisoindolin-5-yl)pyrrolidin-3-yl)methyl)piperazin-1-yl)-N-methylpropanamide] | degraded ITK in vivo | 82 | –
6 | Cn1c(=O)n(C2CCC(=O)NC2=O)c2cccc(N3CCC(CN4CCC5(CC4)CCN(c4ccc6cc(-c7n[nH]c8c7CCC(C)(C)C8)[nH]c6c4)C5=O)CC3)c21 (centres unmarked) [Compound 13, 3-(4-(4-((2-(2-(6,6-dimethyl-4,5,6,7-tetrahydro-1H-indazol-3-yl)-1H-indol-6-yl)-1-oxo-2,8-diazaspiro[4.5]decan-8-yl)methyl)piperidin-1-yl)-3-methyl-2-oxo-2,3-dihydro-1H-benzo[d]imidazol-1-yl)piperidine-2,6-dione] | degraded ITK in vivo | 15 | –
7 | C[C@@]12Cc3[nH]nc(-c4cc5ccc(N6CCC7(CCN(Cc8ccc9c(c8)C(=O)N(C8CCC(=O)NC8=O)C9=O)CC7)C6=O)cc5[nH]4)c3C[C@@H]1C2(F)F (stereo partly drawn) [Compound 15, 5-((2-(2-((4aS,5aR)-5,5-difluoro-5a-methyl-1,4,4a,5,5a,6-hexahydrocyclopropa[f]indazol-3-yl)-1H-indol-6-yl)-1-oxo-2,8-diazaspiro[4.5]decan-8-yl)methyl)-2-(2,6-dioxopiperidin-3-yl)isoindoline-1,3-dione hydrochloride] | – | 18.3 | –
8 | Cn1c(=O)n(C2CCC(=O)NC2=O)c2cccc(N3CCC(CN4CCC5(CC4)CCN(c4ccc6cc(-c7n[nH]c8c7C[C@@H]7C(F)(F)[C@]7(C)C8)[nH]c6c4)C5=O)CC3)c21 (stereo partly drawn) [Compound 16, 3-(4-(4-((2-(2-((4aS,5aR)-5,5-difluoro-5a-methyl-1,4,4a,5,5a,6-hexahydrocyclopropa[f]indazol-3-yl)-1H-indol-6-yl)-1-oxo-2,8-diazaspiro[4.5]decan-8-yl)methyl)piperidin-1-yl)-3-methyl-2-oxo-2,3-dihydro-1H-benzo[d]imidazol-1-yl)piperidine-2,6-dione] | degraded ITK in vivo | 77 | –
9 | C[C@@H](C(=O)N(C)c1ccc2cc(-c3n[nH]c4c3C[C@@H]3C(F)(F)[C@]3(C)C4)[nH]c2c1)N1CCN(CC2CCN(c3ccc(C4CCC(=O)NC4=O)cn3)CC2)CC1 (stereo partly drawn) [Compound 17, (2S)—N-(2-((4aS,5aR)-5,5-difluoro-5a-methyl-1,4,4a,5,5a,6-hexahydrocyclopropa[f]indazol-3-yl)-1H-indol-6-yl)-2-(4-((1-(5-(2,6-dioxopiperidin-3-yl)pyridin-2-yl)piperidin-4-yl)methyl)piperazin-1-yl)-N-methylpropanamide] | degraded ITK in vivo | 20 | degraded ITK
10 | C[C@@H](C(=O)N(C)c1ccc2cc(-c3n[nH]c4c3C[C@@H]3C(F)(F)[C@]3(C)C4)[nH]c2c1)N1CCN(CC2CCN(c3ccc(N4CCC(=O)NC4=O)cn3)CC2)CC1 [Compound 18, (S)—N-(2-((4aS,5aR)-5,5-difluoro-5a-methyl-1,4,4a,5,5a,6-hexahydrocyclopropa[f]indazol-3-yl)-1H-indol-6-yl)-2-(4-((1-(5-(2,4-dioxotetrahydropyrimidin-1(2H)-yl)pyridin-2-yl)piperidin-4-yl)methyl)piperazin-1-yl)-N-methylpropanamide] | degraded ITK in vivo | 14 | degraded ITK
